O=c1cc(-c2ccccc2)oc2cc(O)cc(O)c12
solubility (mole fraction)
Conditions	in DMF	in acetone	in ethanol	in ethyl acetate	in isopropanol	in methanol	in n-butanol	in n-hexane	in n-propanol	in water
293.2 K	0.01	0.00128	0.000455	0.000716	0.000512	0.000226	0.000586	1.4e-07	0.000482	4.61e-09
298.2 K	0.0131	0.00143	0.000505	0.00082	0.000614	0.000238	0.000663	2.95e-07	0.000569	8.63e-09
303.2 K	0.0152	0.00161	0.000637	0.000893	0.000707	0.000299	0.000833	3.8e-07	0.000724	1.26e-08
308.2 K	0.0229	0.00176	0.000709	0.00101	0.000836	0.000324	0.000981	4.5e-07	0.000837	2.57e-08
313.2 K	0.0264	0.00205	0.000822	0.00113	0.00104	0.000406	0.00115	6.78e-07	0.000971	3.96e-08
318.2 K	0.0328	0.00226	0.000903	0.00134	0.00121	0.000453	0.00138	1.08e-06	0.00123	4.82e-08
323.2 K	0.0408	0.00243	0.00113	0.00144	0.0014	0.000576	0.0016	1.25e-06	0.00147	8.41e-08
328.2 K	0.0479	0.00281	0.00144	0.00163	0.00185	0.000711	0.00195	1.7e-06	0.0017	1.28e-07
333.2 K	0.0568	–	0.00171	0.00176	0.00213	0.000813	0.00229	2.21e-06	0.00195	1.88e-07

— BigSolDB 2.1
